The values below come from patent US6410585B1, “Inhibitors of protein tyrosine phosphatase” (priority 1997, dated 2002).

In this test the target is T1, rat PTP1 (Rattus norvegicus, UniProt P20417).
T1 construct: a C-terminal truncation of rat PTP1 (amino acid residues 1-322); GST (N, cleaved yes); made in house; host or cells: E. coli strain TG-1 (pGEX-2T)
T1 sequence (P20417 1-322): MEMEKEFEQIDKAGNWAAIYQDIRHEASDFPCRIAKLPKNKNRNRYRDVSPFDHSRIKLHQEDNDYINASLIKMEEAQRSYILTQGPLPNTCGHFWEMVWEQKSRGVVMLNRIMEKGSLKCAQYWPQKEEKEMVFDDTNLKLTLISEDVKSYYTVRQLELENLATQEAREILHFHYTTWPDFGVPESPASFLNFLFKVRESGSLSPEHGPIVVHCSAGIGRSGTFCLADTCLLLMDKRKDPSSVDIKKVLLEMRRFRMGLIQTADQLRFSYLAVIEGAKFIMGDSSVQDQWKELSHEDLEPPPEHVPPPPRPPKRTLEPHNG
The test is described as follows: PTP1 assay, pNPP hydrolysis (rate of change in A405). The test is classed as biochemical. The text has this: PTP1 Assays: A construct, which consisted of a C-terminal truncation of rat PTP1 (amino acid residues 1-322) (cloned from a rat brain library) with an N-terminal glutathione S-transferase (GST) tag and an adjacent thrombin cleavage site, was inserted into vector plasmid pGEX-2T and transformed into E. coli strain TG-1 under the control of a lac promoter (K. L. Guan and J. E. Dixon (1991) Eukaryotic proteins expressed in Escherichia coli: an improved thrombin cleavage and purification procedure of fusion proteins with glutathione S-transferase. Analyt. Biochem. 192: 262-267). The GST-fusion protein was purified on a glutathione agarose affinity column, the GST tag was cleaved with thrombin, and the active enzyme was recovered for use in an assay to identify PTP inhibitors.
PTP1 activity is measured using either p-nitrophenol phosphate (pNPP) or a triphosphopeptide (that matches residues 1142 through 1153 of the β-subunit and the insulin receptor) as substrate in a 96-well microtiter plate format. An assay pH of 7.2 is used for standard assays (measured 405=9800 at pH 7.2).
Standard assays are conducted at room temperature in a total volume of 0.2 ml that contains Hepes buffer (50 mM, pH 7.2), NaCl (50 mM), EDTA (1 mM), DTT (1 mM), bovine serum albumin (1 mg/ml), pNPP (1 mM) and PTP1 (35 ng/ml). Compounds (2 μl of 10 mM solutions) are pipetted into wells of microtiter plates followed by 198 μl of premixed reaction mix (with PTP1 and pNPP added immediately before use). The rate of change in A405 is recorded for 60 min. Two wells on each plate contain DMSO controls and two wells contain sodium orthovanadate (1 mM) which inhibits PTP1-catalyzed hydrolysis of pNPP completely. Data are expressed as percent inhibition relative to the average of the DMSO controls measured on the same microtiter plate.

[1] abbreviates: Conc 1 uM, pNPP hydrolysis, Table 1, read-out: PTP1 Inhib % Inhib.
The mark [2] stands for this setting: Conc 10 uM, pNPP hydrolysis, Table 1, read-out: PTP1 Inhib % Inhib.
The mark [3] stands for this setting: Conc 100 uM, pNPP hydrolysis, Table 1, read-out: PTP1 Inhib % Inhib.
Where [4] appears, read: inhibition of pNPP-hydrolysis, compound concentration 1 μM, read-out: % Inhibition.
The mark [5] stands for this setting: inhibition of pNPP-hydrolysis, compound concentration 10 μM, read-out: % Inhibition.
[6] abbreviates: inhibition of pNPP-hydrolysis, compound concentration 100 μM, read-out: % Inhibition.
The mark [7] stands for this setting: Conc 1 uM, pNPP hydrolysis, Table 2, read-out: PTP1 Inhib PTP1N. % Inhib.
The mark [8] stands for this setting: Conc 10 uM, pNPP hydrolysis, Table 2, read-out: PTP1 Inhib PTP1N. % Inhib.
Where [9] appears, read: Conc 100 uM, pNPP hydrolysis, Table 2, read-out: PTP1 Inhib PTP1N. % Inhib.

Like-named read-outs stand apart in the source and are kept apart here.

Regarding `CCCCCNC(=O)[C@H](Cc1ccc(OC(C(=O)O)C(=O)O)cc1)NC(=O)C(CC(=O)O)NC(=O)CCC(=O)O` (stereo partly drawn), under setting [1], the inhibition at 1 µM turned out to be 27%. Under setting [2], the inhibition at 10 µM was determined as 75%. Further, the inhibition at 100 µM under setting [3] amounted to 96%.
With `CC(C)(C)OC(=O)N[C@@H](Cc1ccccc1)C(=O)N[C@H](Cc1ccc(OCC(=O)O)c(C(=O)O)c1)C(=O)NCCCN1CCCC1=O` [Example 157-12, 5-((2R)-2-({(2S)-2-[(tert-Butoxycarbonyl)amino]-3-phenylpropanoyl}amino)-3-oxo-3-{[3-(2-oxo-1-pyrrolidinyl)propyl]amino}propyl)-2-(carboxymethoxy)benzoic Acid], the inhibition at 1 µM under setting [4] stood at 27%. For the same compound, under setting [5], the inhibition at 10 µM stood at 76%. For the same compound, the inhibition at 100 µM under setting [6] came out at 95%.
With `CCCCCNC(=O)C(Cc1ccc(OCC(=O)O)c(COO)c1)NC(=O)CCC(=O)O` (stereo not drawn), the inhibition at 1 µM under setting [1] is 17%. Moreover, under setting [2], the inhibition at 10 µM is 63%. The inhibition at 100 µM under setting [3] is 93%.
`CCCCCNC(=O)C(Cc1ccc(OC(COO)COO)cc1)NC(=O)C(Cc1ccc(OCc2c(Cl)cccc2Cl)cc1)NC(=O)CCC(=O)O` (stereo not drawn): the inhibition at 1 µM under setting [7] worked out at 11%. Further, under setting [8], the inhibition at 10 µM was found to be 70%. Besides, the inhibition at 100 µM under setting [9] was found to be 98%.
Consider `O=C(O)COc1ccc(C[C@H](NC(=O)c2ccc(Cl)cc2)C(=O)NCCCCc2ccc(Cl)cc2)cc1C(=O)O` [Example 154-20, 2-(carboxymethoxy)-5-((2S)-2-[(4-chlorobenzoyl)amino]-3-{[4-(4-chlorophenyl)butyl]amino}-3-oxopropyl)benzoic acid], for which the inhibition at 1 µM under setting [4] stood at 27%. Further, the inhibition at 10 µM under setting [5] came to 79%. Also, the inhibition at 100 µM under setting [6] was 98%.
As for `O=C(O)CCC(=O)NC(Cc1ccc(OC(COO)COO)cc1)C(=O)NCc1cccc2ccccc12` (stereo not drawn), the inhibition at 1 µM under setting [1] was determined as 7%. Further, the inhibition at 10 µM under setting [2] came out at 18%. Besides, the inhibition at 100 µM under setting [3] is 61%.
Consider `O=C(O)CCC(=O)NC(Cc1ccc(OC(COO)COO)cc1)C(=O)NCCOc1ccccc1` (stereo not drawn), for which the inhibition at 1 µM under setting [1] was found to be 1%. Also, under setting [2], the inhibition at 10 µM is 13%. For the same compound, the inhibition at 100 µM under setting [3] is 57%.
Consider `CCCCCNC(=O)[C@H](Cc1ccc(OC(C(=O)O)C(=O)O)cc1)NC(=O)C1C2CCC(CC2)C1C(=O)O` (stereo partly drawn), for which the inhibition at 1 µM under setting [1] turned out to be 4%. The inhibition at 10 µM under setting [2] amounted to 5%. Besides, the inhibition at 100 µM under setting [3] is 41%.
As for `CCCCCNC(=O)C(C)(Cc1ccc(OC(C(=O)O)C(=O)O)cc1)NC(=O)CCC(=O)O` (stereo not drawn), the inhibition at 1 µM under setting [7] is 3%. Moreover, the inhibition at 10 µM under setting [8] was 6%. In addition, the inhibition at 100 µM under setting [9] was found to be 34%.
On to `O=C(O)COc1ccc(C[C@H](NC(=O)c2ccccc2)C(=O)NCCCCc2ccccc2)cc1C(=O)O` [Example 154-8, 5-{(2S)-2-(benzoylamino)-3-oxo-3-[(4-phenylbutyl)amino]propyl}-2-(carboxymethoxy)benzoic acid], for which, under setting [4], the inhibition at 1 µM worked out at 30%. Further, under setting [5], the inhibition at 10 µM came out at 81%. Besides, the inhibition at 100 µM under setting [6] turned out to be 97%.
Turning to `CCCCCNC(=O)[C@H](Cc1ccc(OC(C(=O)O)C(=O)O)cc1)NC(=O)c1ccccc1C(=O)O`, under setting [1], the inhibition at 1 µM was 2%. Besides, the inhibition at 10 µM under setting [2] was determined as 14%. Further, the inhibition at 100 µM under setting [3] stood at 63%.
In the same order, the values of `CCCCCNC(=O)[C@H](Cc1ccc(OC(C(=O)O)C(=O)O)cc1)NC(=O)[C@@H]1CCCC[C@H]1C(=O)O` are 1%, 20% and 72%.
As for `CCCCCNC(=O)C(Cc1ccc(OC(COO)COO)cc1)NC(=O)C(Cc1ccc(C(=O)c2ccccc2)cc1)NC(=O)CCc1ccc(O)cc1` (stereo not drawn), under setting [7], the inhibition at 1 µM amounted to 9%. Further, the inhibition at 10 µM under setting [8] was 47%. Besides, the inhibition at 100 µM under setting [9] is 89%.
For `CCCCCNC(=O)[C@H](Cc1ccc(OC(C(=O)O)C(=O)O)cc1)NC(=O)CC(=O)O`, the inhibition at 1 µM under setting [1] turned out to be 4%. For the same compound, the inhibition at 10 µM under setting [2] stood at 20%. For the same compound, the inhibition at 100 µM under setting [3] came out at 74%.
As for `CCCCCNC(=O)[C@H](Cc1ccc(OC(C(=O)O)C(=O)O)cc1)NC(=O)CCCC(=O)O`, the inhibition at 1 µM under setting [1] was 2%. In addition, the inhibition at 10 µM under setting [2] stood at 17%. Further, the inhibition at 100 µM under setting [3] was 67%.
On the same counts, the results for `O=C(O)CCC(=O)N[C@@H](Cc1ccc(OC(C(=O)O)C(=O)O)cc1)C(=O)NCCc1ccc(O)cc1` are 1%, 7% and 43%.
In the case of `CCCCCNC(=O)[C@H](Cc1ccc(OC(C(=O)O)C(=O)O)cc1)NC(=O)C(CC(=O)O)NC(=O)OCc1ccccc1` (stereo partly drawn), under setting [1], the inhibition at 1 µM amounted to 10%. In addition, the inhibition at 10 µM under setting [2] amounted to 51%. The inhibition at 100 µM under setting [3] turned out to be 90%.
In the case of `CCCCCNC(=O)C(Cc1ccc(OC(COO)COO)cc1)NC(=O)N(Cc1ccc(CC(=O)O)cc1)Cc1cccc(C(F)(F)F)c1` (stereo not drawn), the inhibition at 1 µM under setting [7] turned out to be 4%. Besides, under setting [8], the inhibition at 10 µM was found to be 51%. Also, under setting [9], the inhibition at 100 µM amounted to 92%.
Consider `CCCCCNC(=O)C(Cc1ccc(OC(COO)COO)cc1)NC(=O)C(Cc1ccc(OC)cc1)NC(=O)OC(C)(C)C` (stereo not drawn), for which, under setting [7], the inhibition at 1 µM is 8%. Moreover, the inhibition at 10 µM under setting [8] came out at 36%. Under setting [9], the inhibition at 100 µM amounted to 90%.
With `CCCCCNC(=O)[C@H](Cc1ccc(OC(C(=O)O)C(=O)O)cc1)NC(=O)[C@H](CC(=O)O)NC(=O)CCCCC`, the inhibition at 1 µM under setting [1] is 14%. In addition, the inhibition at 10 µM under setting [2] came out at 57%. For the same compound, the inhibition at 100 µM under setting [3] stood at 91%.
As to `CCCCCNC(=O)C(Cc1ccc(OC(COO)COO)cc1)NC(=O)NCC(=O)NCC(=O)O` (stereo not drawn), under setting [7], the inhibition at 1 µM amounted to 12%. Also, under setting [8], the inhibition at 10 µM is 56%. Under setting [9], the inhibition at 100 µM is 93%.
As for `O=C(O)CCC(=O)N[C@@H](Cc1ccc(OC(C(=O)O)C(=O)O)cc1)C(=O)NCCCN1CCOCC1`, the inhibition at 1 µM under setting [1] came out at 0%. The inhibition at 10 µM under setting [2] was 6%. In addition, under setting [3], the inhibition at 100 µM came out at 35%.
In the same order, the values of `CCCCCNC(=O)[C@H](Cc1ccc(OC(C(=O)O)C(=O)O)cc1)NC(=O)[C@H](CCC(=O)O)NC(=O)OC(C)(C)C` are 5%, 34% and 83%.
As to `O=C(O)CCC(=O)N[C@@H](Cc1ccc(OC(C(=O)O)C(=O)O)cc1)C(=O)NCCCn1ccnc1`, the inhibition at 1 µM under setting [1] was found to be 2%. The inhibition at 10 µM under setting [2] amounted to 3%. Also, the inhibition at 100 µM under setting [3] is 26%.
Consider `CCCCCNC(=O)[C@H](Cc1ccc(C=C(C(=O)O)C(=O)O)cc1)NC(=O)CCC(=O)O`, for which the inhibition at 1 µM under setting [1] turned out to be 3%. Under setting [2], the inhibition at 10 µM is 6%. Besides, under setting [3], the inhibition at 100 µM came out at 33%.
On the same counts, the results for `O=C(O)CCC(=O)N[C@@H](Cc1ccc(OC(C(=O)O)C(=O)O)cc1)C(=O)NCC1CCCCC1` are 0%, 21% and 73%.
As to `CCCCCNC(=O)C(Cc1ccc(OC(COO)COO)cc1)NC(=O)[C@H](Cc1ccc(C(=O)c2ccccc2)cc1)NC(C)=O` (stereo partly drawn), the inhibition at 1 µM under setting [7] came to 9%. Besides, the inhibition at 10 µM under setting [8] was determined as 42%. In addition, the inhibition at 100 µM under setting [9] was determined as 87%.
`CCCCCNC(=O)[C@H](Cc1ccc(OC(C(=O)O)C(=O)O)cc1)NC(=O)CCC(N)=O`: the inhibition at 1 µM under setting [1] came to 0%. Also, the inhibition at 10 µM under setting [2] was found to be 11%. Moreover, the inhibition at 100 µM under setting [3] stood at 51%.
In the case of `CC(C)(C)OC(=O)N[C@@H](Cc1ccccc1)C(=O)N[C@@H](Cc1ccc(OCC(=O)O)c(C(=O)O)c1)C(=O)NCCCc1ccccc1` [Example 157-1, 5-{(2S)-2-({(2S)-2-[(tert-Butoxycarbonyl)amino]-3-phenylpropanoyl}amino)-3-oxo-3-[(3-phenylpropyl)amino]propyl}-2-(carboxymethoxy)benzoic Acid], under setting [4], the inhibition at 1 µM amounted to 39%. Moreover, under setting [5], the inhibition at 10 µM stood at 84%. Also, the inhibition at 100 µM under setting [6] came out at 97%.
